# Where two headings read alike, the source gives them in different places.
# Columns and labels:
# clinical DILI in man = settings: cited from earlier work; for FDA (Severity): FDA drug labeling DILI concern; for Clinical DILI classification (Figure 5): structural analogue pairs, 2008 and others; for Guo et al. (2005): ref Guo et al. (2005)
# [1] = therapeutic total cmax; ref PMID; cited from earlier work
# [2] = cited from earlier work; for Extent of hepatic metabolism: ref DrugBank and Prescribers' Digital Reference database
# [3] = system: PHH spheroids (hanging-drop); settings: PHH hanging-drop spheroids, 100x Cmax; ref Proctor 2017; cited from earlier work
# [4] = system: primary human hepatocytes (PHH) 3D spheroids; assay: CD-spheroid hepatotoxicity: ATP viability (CellTiter-Glo) of PHH 3D spheroids after 14 days repeated exposure at 1×, 5×, 20× cmax
# [5] = system: Wistar rat primary hepatocyte 3D spheroids; assay: Animal hepatocyte spheroid hepatotoxicity (ATP viability, 14 days), Wistar rat; type: cell-based; settings: for hepatotoxicity evaluation in spheroids: Wistar rat hepatocyte spheroids, 1×, 5×, 20× human cmax, 14 days
# [6] = system: primary human hepatocytes (PHH) 3D spheroids
# PHH 2D sandwich cultures = settings: cited from earlier work; for 2Dsw (Xu 2008) 100x: PHH 2D sandwich cultures, 100x Cmax, ref Xu 2008
# [7] = system: C57BL/6 mouse primary hepatocyte 3D spheroids; assay: Animal hepatocyte spheroid hepatotoxicity (ATP viability, 14 days), C57BL/6 (BL6) mouse; type: cell-based; settings: for hepatotoxicity evaluation in spheroids: C57BL/6 mouse hepatocyte spheroids, 1×, 5×, 20× human cmax, 14 days
# [8] = system: CD1 mouse primary hepatocyte 3D spheroids; assay: Animal hepatocyte spheroid hepatotoxicity (ATP viability, 14 days), CD1 mouse; type: cell-based; settings: for hepatotoxicity evaluation in spheroids: CD1 mouse hepatocyte spheroids, 1×, 5×, 20× human cmax, 14 days
# [9] = Animal hepatocyte spheroid hepatotoxicity (ATP viability, 14 days), minipig; type: cell-based, Gottingen minipig; settings: Gottingen, primary minipig hepatocyte 3D spheroids; minipig spheroids, no indication of hepatotoxicity
# [10] = system: rhesus monkey primary hepatocyte 3D spheroids; assay: Animal hepatocyte spheroid hepatotoxicity (ATP viability, 14 days), rhesus monkey; type: cell-based; settings: for hepatotoxicity evaluation in spheroids: rhesus monkey hepatocyte spheroids, 1×, 5×, 20× human cmax, 14 days
# in vitro = settings: human
# [11] = system: Gottingen minipig primary hepatocyte 3D spheroids; assay: Animal hepatocyte spheroid hepatotoxicity (ATP viability, 14 days), minipig; type: cell-based; settings: minipig hepatocyte spheroids, 1×, 5×, 20× human cmax, 14 days
# rats = system: rats; set-up: method as in McGill et al., 2012b; settings: in vivo; ref McGill et al., 2012b; cited from earlier work
# [12] = FDA drug labeling DILI score, ref Chen et al., 2011
# [13] = clinical DILI classification in man (POS/NEG)
# [14] = clinical DILI classification used in this study, Supplementary Table 2, ref Chen et al., 2011, Guo et al., 2005, O'Brien et al., 2006, Sakatis et al., 2012, Suzuki et al., 2010, Xu et al., 2008
# [15] = clinical DILI classification, Supplementary Table 1, ref Chen et al., 2011, Guo et al., 2005, O'Brien et al., 2006, Sakatis et al., 2012, Suzuki et al., 2010, Xu et al., 2008
# [16] = reported pattern of liver damage, Supplementary Table 2, ref literature
# [17] = ref Chen et al., 2011, Xu et al.
# [18] = clinical DILI classification, ref Xu et al. (2008)
# [19] = DILI classification score, ref Suzuki et al. (2010)
# [20] = clinical hepatotoxicity classification, ref Sakatis et al. (2012)
# [21] = human liver, ref Yoon et al., 2016
SMILES,"FDA (Severity) (clinical DILI in man; ref Chen et al., 2011)",FDA (0-8) (clinical DILI in man; [12]),DILI in vivo (clinical DILI in man; [13]),Classified as (clinical DILI in man; [14]),DILI in vivo (clinical DILI in man; [15]),Type of DILI (clinical DILI in man; [16]),Clinical DILI classification (Figure 5) (clinical DILI in man; [17]),Cmax [1],Extent of hepatic metabolism [2],Hanging-drop spheroids (Proctor 2017) 100x [3],hepatotoxicity evaluation in spheroids [5],Chemically defined spheroids (this study) 20x [6],Guo et al. (2005) (clinical DILI in man; DILI classification score),Xu et al. (2008) (clinical DILI in man; [18]),2Dsw (Xu 2008) 100x (PHH 2D sandwich cultures),hepatotoxicity evaluation in spheroids [7],hepatotoxicity evaluation in spheroids [8],hepatotoxicity evaluation in spheroids [11],hepatotoxicity evaluation in spheroids [10],Suzuki et al. (2010) (clinical DILI in man; [19]),further results
COC(c1ccccc1)(c1ccccc1)[C@H](Oc1nc(C)cc(C)n1)C(=O)O [Ambrisentan],less DILI concern,7,NEG,NEG,NEG,Non-hepatotoxic,DILI negative,2270 nM,Extensive,Negative,,,,,,,,,,,"Chemically defined spheroids (this study) 20x ([4]; PHH spheroids in chemically defined conditions, 20x Cmax): Negative; hepatotoxicity evaluation in CD-spheroids ([4]; PHH spheroids, 1×, 5×, 20× cmax, 14 days repeated exposure, ATP): did not result in a significant reduction of hepatocyte viability"
CC(CN1c2ccccc2Sc2ccccc21)N(C)C (stereo not shown) [Promethazine],,5,NEG,NEG,NEG,Non-hepatotoxic,,60 nM,Extensive,,indicated toxicity,Negative,3,Negative,Negative,,,,,,
Cc1ccc(-c2cc(C(F)(F)F)nn2-c2ccc(S(N)(=O)=O)cc2)cc1 [Celecoxib],,,,,,,,2550 nM,Extensive,,,Positive,,,,,,,,,"viability ([7]; C57BL/6 mouse spheroids, 20× cmax): < 2 % of respective controls; viability ([8]; CD1 mouse spheroids, 20× cmax): < 2 % of respective controls; viability ([5]; rat spheroids, 20× cmax): < 2 % of respective controls; viability at 14 days [9]: > 100%; viability ([10]; monkey spheroids, 20× cmax): < 2 % of respective controls; viability at 14 days, 20 × cmax (in vitro): < 2%; Classified as (clinical DILI in man; in vivo): POS; Clinical DILI class (panel heading of Figure 4) (clinical DILI in man; in vivo): High DILI concern; DILI in vivo (clinical DILI in man; in vivo): POS; FDA (0-8) (clinical DILI in man; in vivo): 3; Suzuki et al. (2010) (clinical DILI in man; in vivo): 1; Type of DILI (clinical DILI in man; in vivo): Hepatocellular injury or Cholestatic injury"
Cc1c(C)c2c(c(C)c1O)CCC(C)(COc1ccc(CC3SC(=O)NC3=O)cc1)O2 (stereo not shown) [Troglitazone],most DILI concern,Withdrawn,POS,POS,POS,Hepatocellular injury or Cholestatic injury,DILI positive,6080 nM,Extensive,Positive,flagged as hepatotoxic,Positive,3,Positive,Positive,flagged as hepatotoxic,flagged as hepatotoxic,flagged as hepatotoxic,flagged as hepatotoxic,3,hepatotoxicity evaluation in CD-spheroids [6]: clearly detected; Sakatis et al. (2012) (clinical DILI in man; [20]): Hepatotoxic
CCc1nn(CCCN2CCN(c3cccc(Cl)c3)CC2)c(=O)n1CCOc1ccccc1 [Nefazodone],,8,POS,POS,POS,Hepatocellular injury,DILI positive,3950 nM,Extensive,Positive,flagged as hepatotoxic,Positive,3,Positive,Positive,flagged as hepatotoxic,flagged as hepatotoxic,flagged as hepatotoxic,flagged as hepatotoxic,3,"hepatotoxicity evaluation in CD-spheroids ([6]; human, 14 days): severe toxicity at 5× and 20× of the therapeutic exposure levels; Sakatis et al. (2012) (clinical DILI in man; [20]): Hepatotoxic"
O=C(c1ccc(OCCN2CCCCC2)cc1)c1c(-c2ccc(O)cc2)sc2cc(O)ccc12 [Raloxifene],,,,,,,,1 nM,,,,Negative,,,Negative,,incorrectly flagged as hepatotoxic,,mild but significant toxicity,,Classified as (clinical DILI in man; in vivo): NEG; Clinical DILI class (panel heading of Figure 4) (clinical DILI in man; in vivo): DILI negative; DILI in vivo (clinical DILI in man; in vivo): NEG; FDA (0-8) (clinical DILI in man; in vivo): 0; Sakatis et al. (2012) (clinical DILI in man; in vivo): non-hepatotixic; Type of DILI (clinical DILI in man; in vivo): Non-hepatotoxic; Xu et al. (2008) (clinical DILI in man; in vivo): Negative
CC(=O)Nc1ccc(O)cc1 [Acetaminophen],,,,,,,,,Extensive,Positive,,,,,Positive,,,,,,"acetaminophen-induced hepatotoxicity in rats (rats): resistant to acetaminophen-induced hepatotoxicity; fraction inactivated by sulfation or glucuronidation [2, 21]: around 90%; fraction metabolically activated by CYP2E1 and CYP3A4 to NAPQI [2, 21]: 5%–10%"
C1CCC(C(CC2CCCCN2)C2CCCCC2)CC1 (stereo not shown) [Perhexiline],,Withdrawn,POS,POS,POS,Hepatocellular injury,,,Extensive,Positive,flagged as hepatotoxic,Positive,,Positive,Positive,flagged as hepatotoxic,flagged as hepatotoxic,flagged as hepatotoxic,flagged as hepatotoxic,3,Sakatis et al. (2012) (clinical DILI in man; [20]): Hepatotoxic
CC(C)C(=O)Nc1ccc([N+](=O)[O-])c(C(F)(F)F)c1 [Flutamide],most DILI concern,8,POS,POS,POS,"Hepatocellular injury, Cholestatic injury or Mixed hepatitis",,5430 nM,Extensive,Positive,flagged as hepatotoxic,Positive,3,Positive,Negative,flagged as hepatotoxic,flagged as hepatotoxic,flagged as hepatotoxic,flagged as hepatotoxic,2,"O'Brien et al. (2003) (clinical DILI in man; in vivo): Severely; Sakatis et al. (2012) (clinical DILI in man; in vivo): Hepatotoxic; hepatotoxicity detection in 2D sandwich cultures of PHH (PHH 2D sandwich cultures; 100× cmax, 24 h, high content imaging, ref Xu et al., 2008): liver toxicity was not recognized"

# From publication PMC5974779, “Prediction of Drug-Induced Hepatotoxicity Using Long-Term Stable Primary Hepatic 3D Spheroid Cultures in Chemically Defined Conditions” (Toxicological Sciences, 2018)
